Assays:
Details in all cases: post-emergence spray at 3-4 leaf stage, 80 g/ha, 30th day after treatment, greenhouse
redroot pigweed = assay: Upland post-emergence treatment test, redroot pigweed; type: in vivo, redroot pigweed (Amaranthus retroflexus)
Source text: (§1) 97 Parts by weight of talc (trade name: Zeaklite, supplied by Zeaklite Industry) as a carrier, 1.5 parts by weight of alkylarylsulfonic acid salt (trade name: Neoplex, supplied by Kao-Atlas K.K.) as a surfactant and 1.5 parts by weight of a nonionic and anionic surfactant (trade names Sorpol 800A, supplied by Toho Chemical Co., Ltd.) were uniformly pulverized and mixed to prepare a carrier for a wettable powder.
(§2) 90 Parts by weight of the above carrier for a wettable powder and 10 parts by weight of one of the compounds of the present invention were uniformly pulverized and mixed to obtain herbicides. Further, in Comparative Herbicide Examples, comparative herbicides were also prepared from the following compounds (A) and (B) in the same manner.
(§3) Herbicidal efficacy and phytotoxicity to crops were determined on the basis of the ratio of remaining plant weight to plant weight in non-treated plot=(remaining plant weight in treated plot/plant weight in non-treated-plot)×100. The ratings were applied to the following biological tests.
(§4) Seeds of weeds velvetleaf, redroot pigweed, common ragweed, green foxtail and large crabgrass and seeds of corn were sown in 1/5,000-are Wagner pots filled with upland soil, and covered with upland soil. The seeds were grown in a greenhouse, and at the stage of 3˜4 leaves of these plants, a predetermined amount of the herbicide prepared in the above (1) was suspended in water, and the suspension was uniformly sprayed onto leaf and stalk portions at a rate of 2,000 liters/hectare. Then, the plants were grown in the greenhouse, and on the 30th day after the treatment, the herbicide was evaluated for herbicidal efficacy and phytotoxicity to the corn on the basis of the ratings shown in (2).

common ragweed = assay: Upland post-emergence treatment test, common ragweed; type: in vivo, common ragweed (Ambrosia artemisilfolia)
Source text: as §1, §2, §3, §4

corn = assay: Upland post-emergence treatment test, phytotoxicity to corn; type: in vivo
Source text: as §1, §2, §3, §4

green foxtail = assay: Upland post-emergence treatment test, green foxtail; type: in vivo, green foxtail (Setaria viridis)
Source text: as §1, §2, §3, §4

velvetleaf = assay: Upland post-emergence treatment test, velvetleaf; type: in vivo, velvetleaf (Abutilon theophrasti)
Source text: as §1, §2, §3, §4

large crabgrass = assay: Upland post-emergence treatment test, large crabgrass; type: in vivo
Source text: as §1, §2, §3, §4
Also: ranges in brackets are in %.

SMILES	Herbicidal Efficacy CC = Redroot Pigweed (redroot pigweed)	Herbicidal Efficacy DD = Common ragweed (common ragweed)	Phytotoxicity Corn (corn)	Herbicidal Efficacy EE = Green foxtail (green foxtail)	Herbicidal Efficacy AA = Velvetleaf (velvetleaf)	Herbicidal Efficacy FF = Large crabgrass (large crabgrass)
Cc1c(C(=O)c2cnn(C)c2OS(=O)(=O)C(C)C)ccc2c1C(C)(C)CS2(=O)=O [Compound 5]	5 (0)	5 (0)	− (100)	5 (0)	5 (0)	5 (0)
Cc1c(C(=O)c2cnn(C)c2OS(=O)(=O)C2CC2)ccc2c1C(C)(C)CS2(=O)=O [Compound 6]	5 (0)	5 (0)	− (100)	5 (0)	5 (0)	5 (0)
CCCCS(=O)(=O)Oc1c(C(=O)c2ccc3c(c2C)C(C)(C)CS3(=O)=O)cnn1C [Compound 7]	5 (0)	5 (0)	− (100)	5 (0)	5 (0)	5 (0)
Cc1c(C(=O)c2cnn(C)c2OS(=O)(=O)CC(C)C)ccc2c1C(C)(C)CS2(=O)=O [Compound 8]	5 (0)	5 (0)	− (100)	5 (0)	5 (0)	5 (0)
CCCCCCCCS(=O)(=O)Oc1c(C(=O)c2ccc3c(c2C)C(C)(C)CS3(=O)=O)cnn1C [Compound 12]	5 (0)	5 (0)	− (100)	5 (0)	5 (0)	5 (0)
Cc1c(C(=O)c2cnn(C)c2OS(=O)(=O)CCl)ccc2c1C(C)(C)CS2(=O)=O [Compound 13]	5 (0)	5 (0)	− (100)	5 (0)	5 (0)	5 (0)
Cc1c(C(=O)c2cnn(C)c2OS(=O)(=O)CCCCl)ccc2c1C(C)(C)CS2(=O)=O [Compound 14]	5 (0)	5 (0)	− (100)	5 (0)	5 (0)	5 (0)
Cc1c(C(=O)c2cnn(C)c2OS(=O)(=O)c2ccccc2)ccc2c1C(C)(C)CS2(=O)=O [Compound 15]	5 (0)	5 (0)	− (100)	5 (0)	5 (0)	5 (0)
CCc1ccc(S(=O)(=O)Oc2c(C(=O)c3ccc4c(c3C)C(C)(C)CS4(=O)=O)cnn2C)cc1 [Compound 19]	5 (0)	5 (0)	− (100)	5 (0)	5 (0)	5 (0)
Cc1c(C(=O)c2cnn(C)c2OS(=O)(=O)c2ccc(Cl)cc2)ccc2c1C(C)(C)CS2(=O)=O [Compound 21]	5 (0)	5 (0)	− (100)	5 (0)	5 (0)	5 (0)
Cc1c(C(=O)c2cnn(C)c2OS(=O)(=O)c2ccc(Cl)cc2Cl)ccc2c1C(C)(C)CS2(=O)=O [Compound 24]	5 (0)	5 (0)	− (100)	5 (0)	5 (0)	5 (0)
COc1ccc(S(=O)(=O)Oc2c(C(=O)c3ccc4c(c3C)C(C)(C)CS4(=O)=O)cnn2C)cc1 [Compound 25]	5 (0)	5 (0)	− (100)	5 (0)	5 (0)	5 (0)
Cc1c(C(=O)c2cnn(C)c2OS(=O)(=O)c2ccc([N+](=O)[O-])cc2)ccc2c1C(C)(C)CS2(=O)=O [Compound 26]	5 (0)	5 (0)	− (100)	5 (0)	5 (0)	5 (0)
Cc1cc(C)c(S(=O)(=O)Oc2c(C(=O)c3ccc4c(c3C)C(C)(C)CS4(=O)=O)cnn2C)c(C)c1 [Compound 27]	5 (0)	5 (0)	− (100)	5 (0)	5 (0)	5 (0)
CCC(=O)Oc1c(C(=O)c2ccc3c(c2C)C(C)(C)CS3(=O)=O)cnn1C [Compound 29]	5 (0)	5 (0)	− (100)	5 (0)	5 (0)	5 (0)
Cc1ccc(C(=O)Oc2c(C(=O)c3ccc4c(c3C)C(C)(C)CS4(=O)=O)cnn2C)cc1 [Compound 42]	5 (0)	5 (0)	− (100)	5 (0)	5 (0)	5 (0)
CC(C)N.Cc1c(C(=O)c2cnn(C)c2O)ccc2c1C(C)(C)CS2(=O)=O [Compound 51]	5 (0)	5 (0)	− (100)	5 (0)	5 (0)	5 (0)
